The text below walks through data of patent US4596828A, “[(2-hydroxy-5-alkoxyphenyl)methylthio]phenylmethanol and derivatives thereof useful as anti-inflammatory agents” (Merck & Co., Inc., priority 1985, dated 1986).

This assay deals with inflammatory responses elicited by topically applied phorbol myristate acetate (PMA) or arachidonic acid (AA) in mouse ears. Description: Topical mouse ear assay (TME): edema measured by wet weight after topical PMA or AA. In kind it is in vivo. The settings on record: mean, N=5 mice/group. As for the experimental part:
The topical mouse ear assay (TME) was used to evaluate the novel compounds of the present invention for its effect on inflammatory responses elicited by topically applied phorbol myristate acetate (PMA) or topically applied archidonic acid (AA).
Method: The right ears of mice (5 mice per group) were treated topically with either […] or 1000 μg AA alone or with the test compound in 25 μl of vehicle. The vehicle was water/pyridine/acetone (1:2:97). A control group of mice received the vehicle only. The mice were allowed food and water ad libitum during the treatment period; 2 hours for AA and 4 hours for PMA. The mice were sacrificed by cervical dislocation and a 6 mm diameter disc of tissue punched from both the treated and untreated ears. The tissue biopsies were immediately weighed and the weight increase of the treated ear relative to the weight of the untreated ear determined.
All of the data are expressed as the mean ±SEM, N=5 mice/group.

Regarding `COc1ccc2c(c1)c(CC(=O)O)c(C)n2C(=O)c1ccc(Cl)cc1` [Indomethacin, reference compound], the “Edema (% inhibition)” value (dosage 150 μg) is given as 51%.
Regarding `COc1ccc(O)c(CSc2ccccc2CO)c1` [Compound A, 2-[2-(Hydroxymethyl)phenylthiomethyl]-4-methoxyphenol], the “Edema (% inhibition)” value (dosage 30 μg) stood at 12%, the “Edema (% inhibition)” value (dosage 50 μg) is 16%, the “Edema (% inhibition)” value (dosage 200 μg) is given as 55% and the “Edema (% inhibition)” value (dosage 300 μg) turned out to be 63%.
Consider `C[C@@H]1C[C@H]2[C@@H]3CCC4=CC(=O)C=C[C@]4(C)[C@@]3(F)[C@@H](O)C[C@]2(C)[C@@]1(O)C(=O)CO` [Dexamethasone, reference compound], for which the “Edema (% inhibition)” value (dosage 5 μg) is on record as 60%.
